Laboratory results from patent EP3290040A1, “PROPHYLACTIC AND THERAPEUTIC AGENT FOR COMPLICATIONS AFTER CATARACT SURGERY” (Honjo, Megumi, priority 2015, dated 2016).

Tests used:
Assay type in all cases: cell-based
Human normal fibroblasts = test: Fibroblast proliferation, BrdU incorporation (Cell Proliferation ELISA BrdU kit); conditions: cultured 2 days, no added Ripasudil = 100%
Description: Human normal fibroblasts (Sanko Junyaku Co., Ltd.) were seeded at 2000 cells/well and cultured overnight. Next day, the medium (FGM-2 (Sanko Junyaku Co., Ltd.)) was exchanged (150 µL) and then Ripasudil was added in a volume of 10 µL to make final concentrations of 0.1 µM, 1.0 µM, and 10.0 µM. […] Fixation and antibody addition, washing and color development, and reaction stopping were performed according to the protocol of the Cell Proliferation ELISA BrdU kit (Roche). Then, a plate reader was used to measure OD540-620 to evaluate the action of Ripasudil on fibroblast proliferation. […]

[1] = tested on: Human lens epithelial cells (SRA 01/04); test: Cell proliferation (DNA synthesis ability) of lens epithelial cells, BrdU incorporation ELISA; conditions: SRA 01/04 cells, 24 hours, FIG. 1
Description: Human lens epithelial cells (SRA 01/04 (RIKEN Cell Bank)) were cultured using 20% FBS-DMEM medium under conditions at 37°C and 5% CO2. The concentration of SRA 01/04 cells was adjusted using 2% FBS-DMEM medium, and the cells were seeded in a 96-well plate at 100 µL/well (5000 cells/well) and incubated for 24 hours under conditions at 37°C and 5% CO2. The medium was exchanged to 5% FBS-DMEM medium, to which TGFβ was added at 10 ng/mL (final concentration) or Ripasudil at 10, 30, or 100 µM (final concentration), and then the cells were cultured for another 24 hours. The cell proliferation ELISA, BrdU (colorimetric) kit (Roche) was used to measure the amount of intracellular 5-bromo-2'-deoxyuridine (BrdU) incorporation at a measurement wavelength of 450 nm with Multiskan MS version 8.0 (LABSYSTEMS), thereby to evaluate the effect on the cell proliferation of SRA 01/04 cells.

HT-1080 cell = test: Inhibitory action on collagen gel contraction (cell-containing collagen gel); parameters: key: When a contraction level was almost equal to that of a group to which Ripasudil was not added, (+) was used; (++) was used in the case where contraction was inhibited; (+++) was used in the case where contraction was significantly inhibited; conditions: HT1080 collagen gel, observed after two or three days
Description: HT-1080 cell suspension adjusted to a density of 150,000 to 200,000 cells/mL with a medium (medium: E'MEM (Sigma)/10% FBS/NEAA/PCSM), and a solution, obtained by mixing A, B and C solutions (A solution: Cellmatrix (Collagen Type I 3 mg/mL), B solution: concentrated culture medium, 10 x MEM Hank's culture medium, and C solution: buffer for reconstitution) of collagen gel culture kit (Nitta Gelatin Inc.) mixed at a ratio of 8 : 1 : 1 and cooling the obtained mixture, were mixed at a ratio of 1.4 : 1, and the obtained mixture was seeded in a 48 Well Plate at 500 µL/well and gelatinized in a CO2 incubator to produce a cell-containing collagen gel. After gelation, 1 mL of the medium in which Ripasudil was adjusted to 0.1 µM, 1.0 µM or 10.0 µM was added on the gel, and an injection needle was inserted between the gel and the wall surface to release the gel from the wall surface, and the gel was incubated to stand in a CO2 incubator. After two or three days, the contraction of the gel was observed, and photos were taken to evaluate the actions of Ripasudil.

SMILES: C[C@H]1CNCCCN1S(=O)(=O)c1cccc2cncc(F)c12 [Ripasudil, 4-fluoro-5-{[(2S)-2-methyl-1,4-diazepan-1-yl]sulfonyl}isoqu inoline]
- BrdU incorporation (% of control) (Human normal fibroblasts; Ripasudil 0.1 µM): 80.0 % of control
- BrdU incorporation (% of control) (Human normal fibroblasts; Ripasudil 1.0 µM): 59.3 % of control
- BrdU incorporation (% of control) (Human normal fibroblasts; Ripasudil 10.0 µM): 10.9 % of control
- DNA synthesis of human lens epithelial cells ([1]; Ripasudil 30 µM): statistically significant decrease
- DNA synthesis of human lens epithelial cells ([1]; Ripasudil 10, 30 or 100 µM): dose-dependent inhibitory action
- Inhibition of contraction (HT-1080 cell; Ripasudil 0.1 µM): +
- Inhibition of contraction (HT-1080 cell; Ripasudil 1.0 µM): ++
- Inhibition of contraction (HT-1080 cell; Ripasudil 10.0 µM): +++
